Measurements reported in patent US11584736B2, “Heterocyclic P2Y14 receptor antagonists” (The United States of America, as represented by the …, priority 2018, dated 2023).

Each compound was assayed on eosinophils in the bronchoalveolar lavage fluid (assay: Protease-mediated mouse model of asthma). Settings: 10 mg/kg i.p., 30 minutes prior to ovalbumin challenge at day 14, P<0.01 vs vehicle.
Type: in vivo
Experimental: […][…] antagonists were tested in vivo in a protease-mediated mouse model of asthma and found to be effective in reducing the presence of eosinophils in the bronchoalveolar lavage fluid. The animals were first sensitized with ovalbumin/Aspergillus oryzae extract on days 0 and 7. Antagonists were injected i.p. at a dose of 10 mg/kg, 30 minutes prior to an ovalbumin challenge at day 14. […] Both […][…] antagonist effects were statistically significant (P<0.01) compared to vehicle control.

SMILES | eosinophils in the bronchoalveolar lavage fluid, normalized and compared to vehicle (100±15%) [%]
O=C(O)c1cc(-c2ccc(C3CCNCC3)cc2)c2ccc(-c3ccc(C(F)(F)F)cc3)cc2c1 [Compound 1] | 43.9±12.8
NCCCNC(=O)c1ccc(-c2cc(C(=O)O)cc(-n3cc(-c4ccc(C(F)(F)F)cc4)nn3)c2)s1 [Compound 23] | 40.3±11.0

Each compound was assayed against T1, mP2Y14R (Mus musculus, UniProt Q9ESG6) (assay: Fluorescence binding method at mP2Y14R expressed in HEK293 cells). Settings: Table 3.
T1 construct: expressed in transfected cells; host or cells: HEK293 cells
T1 sequence (Q9ESG6 1-338): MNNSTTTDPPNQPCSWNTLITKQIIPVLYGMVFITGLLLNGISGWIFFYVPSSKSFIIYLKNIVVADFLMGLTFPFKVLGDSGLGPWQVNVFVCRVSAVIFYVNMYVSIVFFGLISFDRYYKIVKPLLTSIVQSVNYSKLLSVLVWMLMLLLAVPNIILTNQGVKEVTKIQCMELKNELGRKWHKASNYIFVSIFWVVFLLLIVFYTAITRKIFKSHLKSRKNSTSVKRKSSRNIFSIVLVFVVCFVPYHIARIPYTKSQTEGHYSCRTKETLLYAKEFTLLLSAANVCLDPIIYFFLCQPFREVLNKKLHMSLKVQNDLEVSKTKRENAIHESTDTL
Text: This example compares inhibitory potency of antagonists at the mP2Y14R to the hP2Y14R expressed in HEK293 cells, using the fluorescence binding method.

SMILES | IC50 [nM]
O=C(O)c1cc(-c2ccc(N3CCNCC3)cc2)cc(-n2cc(-c3ccc(C(F)(F)F)cc3)nn2)c1 [Compound 4, 4′-(Piperazin-1-yl)-5-(4-(4-(trifluoromethyl)phenyl)-1H-1,2,3-triazol-1-yl)-[1,1′-biphenyl]-3-carboxylic acid] | 499 ± 57

The compounds below were run against T2, hP2Y14R (Homo sapiens, UniProt Q15391) (assay: Competitive fluorescent binding assay, flow cytometry of whole hP2Y14R-CHO cells). Settings: Table 1; hP2Y14R-CHO cells, fluorescent antagonist tracer 20 nM, mean ± SEM (n = 3-5); read-out: IC50.
T2 construct: expressed in transfected cells
T2 sequence (Q15391 1-338): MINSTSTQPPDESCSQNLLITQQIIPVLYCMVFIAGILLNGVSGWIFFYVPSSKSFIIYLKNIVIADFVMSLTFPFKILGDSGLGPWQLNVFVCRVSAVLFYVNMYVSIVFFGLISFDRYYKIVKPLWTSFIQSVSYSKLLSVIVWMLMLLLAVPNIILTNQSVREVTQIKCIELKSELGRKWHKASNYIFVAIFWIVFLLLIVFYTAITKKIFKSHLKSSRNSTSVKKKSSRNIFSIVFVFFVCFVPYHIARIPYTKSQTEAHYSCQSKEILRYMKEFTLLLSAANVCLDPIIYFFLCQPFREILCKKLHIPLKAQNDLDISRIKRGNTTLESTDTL
Experimental: Cell Culture: Chinese hamster ovary cells stably expressing the hP2Y14—R (CHO-hP2Y14R) were grown in Dulbecco's Modified Eagle's Medium (DMEM)/Ham's F12 (F12) 1:1 supplemented with 10% FBS, 100 units/mL penicillin, […] streptomycin, 2 mM L-glutamine and 0.500 mg/mL G418 Sulfate (Geneticin). Cells were maintained in a humidified atmosphere and sterile incubation conditions held at 37° C. and 5% CO2 (g).
Competitive Assay: Competitive fluorescent assays were performed on a BD FACSCalibur flow cytometer in conjunction with the softwares BD Bioscience PlateManager and CellQuest. All cell culture growth and assays for this procedure were conducted on flat-bottom 96-well plates. CHO-hP2Y14R cells were grown to approximately 80-90% confluency prior to assays. The 96-well plate format enabled four compounds to be analyzed in triplicate per run. All unlabeled ligand compounds are stored as 5 mM stock solutions in dimethyl sulfoxide (DMSO). Serial dilutions of each compound were prepared in complete medium. Cells were initially incubated with unlabeled compounds for 30 min at 37° C. and 5% CO2 (g). […] After three consecutive washes in sterile 1× Dulbecco's Phosphate Buffered Saline (DPBS) minus Ca^2+/Mg^2+, cells were detached from the plate using Corning Cellstripper™ to reduce damaging the hP2Y14R protein. Final cell suspensions for flow cytometry was in DPBS minus Ca^2+/Mg^2+.
IC50 values were determined from the gathered data with the program GraphPad Prism version 7.0.

SMILES | IC50 [nM]
CN1CCC(c2ccc(-c3cc(C(=O)O)cc4cc(-c5ccc(C(F)(F)F)cc5)ccc34)cc2)CC1 [Compound 5, 4-(4-(1-Methylpiperidin-4-yl)phenyl)-7-(4-(trifluoromethyl)phenyl)-2-naphthoic acid] | 195 ± 120
C#CCN1CCC(c2ccc(-c3cc(C(=O)O)cc4cc(-c5ccc(C(F)(F)F)cc5)ccc34)cc2)CC1 [Compound 6, 4-(4-(1-(Prop-2-yn-1-yl)piperidin-4-yl)phenyl)-7-(4-(trifluoromethyl)phenyl)-2-naphthoic acid] | 139 ± 19
CCCN1CCC(c2ccc(-c3cc(C(=O)O)cc4cc(-c5ccc(C(F)(F)F)cc5)ccc34)cc2)CC1 [Compound 7, 4-(4-(1-Propylpiperidin-4-yl)phenyl)-7-(4-(trifluoromethyl)phenyl)-2-naphthoic acid] | 133 ± 111
CCCCCCN1CCC(c2ccc(-c3cc(C(=O)O)cc4cc(-c5ccc(C(F)(F)F)cc5)ccc34)cc2)CC1 [Compound 9, 4-(4-(1-Hexylpiperidin-4-yl)phenyl)-7-(4-(trifluoromethyl)phenyl)-2-naphthoic acid] | 131 ± 11
CC(C)(C)OC(=O)N1CCC(c2ccc(-c3cc(C(=O)O)cc4cc(-c5ccc(C(F)(F)F)cc5)ccc34)cc2)CC1 [Compound 10, 4-(4-(1-(tert-butoxycarbonyl)piperidin-4-yl)phenyl)-7-(4-(trifluoromethyl)phenyl)-2-naphthoic acid] | 2440 ± 1540
NCCOCCOCCOCCOCCOCCOCCC(=O)N1CCC(c2ccc(-c3cc(C(=O)O)cc4cc(-c5ccc(C(F)(F)F)cc5)ccc34)cc2)CC1 [Compound 12, 4-(4-(1-(1-Amino-3,6,9,12,15,18-hexaoxahenicosan-21-oyl)piperidin-4-yl)phenyl)-7-(4-(trifluoromethyl)phenyl)-2-naphthoic acid] | 963 ± 417
NC(=O)c1cc(-c2ccc(C3CCNCC3)cc2)cc(-n2cc(-c3ccc(C(F)(F)F)cc3)nn2)c1 [Compound 15, 4′-(Piperidin-4-yl)-5-(4-(4-(trifluoromethyl)phenyl)-1H-1,2,3-triazol-1-yl)-[1,1′-biphenyl]-3-carboxamide] | > 100000
N#Cc1cc(-c2ccc(C3CCNCC3)cc2)cc(-n2cc(-c3ccc(C(F)(F)F)cc3)nn2)c1 [Compound 16, 4′-(Piperidin-4-yl)-5-(4-(4-(trifluoromethyl)phenyl)-1H-1,2,3-triazol-1-yl)-[1,1′-biphenyl]-3-carbonitrile] | 42100 ± 8400
O=C(O)c1cc(-c2ccc(C34CCN(CC3)CC4)cc2)c2ccc(-c3ccc(C(F)(F)F)cc3)cc2c1 [Compound 17, 4-(4-(Quinuclidin-4-yl)phenyl)-7-(4-(trifluoromethyl)phenyl)-2-naphthoic acid] | 20 ± 4.4
O=C(O)c1cc(-c2ccc(C34CCNCC3C4)cc2)cc(-n2cc(-c3ccc(C(F)(F)F)cc3)nn2)c1 (stereo not shown) [Compound 18, 4′-(3-Azabicyclo[4.1.0]heptan-6-yl)-5-(4-(4-(trifluoromethyl)phenyl)-1H-1,2,3-triazol-1-yl)-[1,1′-biphenyl]-3-carboxylic acid] | ~400

Same assay, conditions: Table 2; hP2Y14R-CHO cells, fluorescent antagonist tracer 20 nM, mean ± SEM (n = 3-5); read-out: IC50

SMILES | IC50 [nM]
NC(=O)c1ccc(-c2cc(C(=O)O)cc(-c3cn(-c4ccc(C(F)(F)F)cc4)nn3)c2)cc1 [Compound 24, 4′-Carbamoyl-5-(1-(4-(trifluoromethyl)phenyl)-1H-1,2,3-triazol-4-yl)-[1,1′-biphenyl]-3-carboxylic acid] | 1680 ± 380
O=C(O)c1cc(-c2ccc(C3CCNCC3)cc2)cc(-c2cn(-c3ccc(C(F)(F)F)cc3)nn2)c1 [Compound 25, 4′-(Piperidin-4-yl)-5-(1-(4-(trifluoromethyl)phenyl)-1H-1,2,3-triazol-4-yl)-[1,1′-biphenyl]-3-carboxylic acid] | 644 ± 175
NCCCNC(=O)c1ccc(-c2cc(C(=O)O)cc(-c3cn(-c4ccc(C(F)(F)F)cc4)nn3)c2)s1 [Compound 26, 3-(5-((3-Aminopropyl)carbamoyl)thiophen-2-yl)-5-(1-(4-(trifluoromethyl)phenyl)-1H-1,2,3-triazol-4-yl)benzoic acid] | 2600 ± 560
NC(=O)c1ccc(-c2cc(NC(=O)c3ccc(C(F)(F)F)cc3)cc(C(=O)O)c2)cc1 [Compound 27, 4′-Carbamoyl-5-(4-(trifluoromethyl)benzamido)-[1,1′-biphenyl]-3-carboxylic acid] | 3050 ± 210
NC(=O)c1ccc(-c2cc(C(=O)O)cc(C(=O)Nc3ccc(C(F)(F)F)cc3)c2)cc1 [Compound 29, 4′-Carbamoyl-5-((4-(trifluoromethyl)phenyl)carbamoyl)-[1,1′-biphenyl]-3-carboxylic acid] | 6040 ± 810
O=C(O)c1[nH]c(-c2ccc(C3=CCNCC3)cc2)cc1-n1cc(-c2ccc(C(F)(F)F)cc2)nn1 [Compound 33, 5-(4-(1,2,3,6-Tetrahydropyridin-4-yl)phenyl)-3-(4-(4-(trifluoromethyl)phenyl)-1H-1,2,3-triazol-1-yl)-1H-pyrrole-2-carboxylic acid] | > 100000
O=C(O)c1cc(-c2ccc(C3CCNCC3)cc2)c2nc(-c3ccc(C(F)(F)F)cc3)[nH]c2c1 [Compound 35, 4-(4-(Piperidin-4-yl)phenyl)-2-(4-(trifluoromethyl)phenyl)-1H-benzo[d]imidazole-6-carboxylic acid] | > 100000

Same assay, conditions: Table 3 comparison column; values identical to Tables 1 and 2; read-out: hP2Y14R, IC50

SMILES | IC50 [nM]
O=C(O)c1cc(-c2ccc(N3CCNCC3)cc2)cc(-n2cc(-c3ccc(C(F)(F)F)cc3)nn2)c1 [Compound 4, 4′-(Piperazin-1-yl)-5-(4-(4-(trifluoromethyl)phenyl)-1H-1,2,3-triazol-1-yl)-[1,1′-biphenyl]-3-carboxylic acid] | 233 ± 26
O=C(O)c1cc(-c2ccc(C3CCNCC3)cc2)cc(-c2cn(-c3ccc(C(F)(F)F)cc3)nn2)c1 [Compound 25, 4′-(Piperidin-4-yl)-5-(1-(4-(trifluoromethyl)phenyl)-1H-1,2,3-triazol-4-yl)-[1,1′-biphenyl]-3-carboxylic acid] | 644 ± 175
